Measured values published in publication PMC10114980, “Triple targeting of mutant EGFR^L858R/T790M, COX-2, and 15-LOX: design and synthesis of novel quinazolinone tethered phenyl urea derivatives for anti-inflammatory and anticancer evaluation” (Journal of Enzyme Inhibition and Medicinal Chemistry, 2023).
“And” between values parts separate entries of the source, which are not always exact repeats. Equal entries are not always repeated.

Columns and labels:
SNB-75 = assay: NCI single dose screen, SNB-75; format: cell-based; conditions: Homo sapiens; SNB-75, CNS cancer; single dose 10^−5 M; read-out: growth inhibition percentage
Method: (§1) Screening of the anticancer activity of the newly synthesised compounds (6a, 6c, 6d, 6e, 6j, 6l, 6m, 6n, 6o, and 6p) was performed by the US National Cancer Institute (NCI) using 60 different human tumour cell lines in accordance with standard procedures formerly reported.
(§2) In vitro anticancer screening was carried out for the selected compounds at a single dose (10^−5 M) against 60 different human tumour cell lines of nine different cancer cell types: leukaemia, lung, colon, CNS, melanoma, ovarian, renal, prostate, and breast cancers.

A498 = assay: NCI single dose screen, A498; format: cell-based; conditions: Homo sapiens; A498, renal cancer; single dose 10^−5 M; read-out: growth inhibition percentage
Method: as §1, §2

SF-268 = assay: NCI single dose screen, SF-268; format: cell-based; conditions: Homo sapiens; SF-268, CNS cancer; single dose 10^−5 M; read-out: growth inhibition percentage
Method: as §1, §2

HOP-92 = assay: NCI single dose screen, HOP-92; format: cell-based; conditions: Homo sapiens; HOP-92, non-small cell lung cancer; single dose 10^−5 M; read-out: growth inhibition percentage
Method: as §1, §2

TK-10 = assay: NCI single dose screen, TK-10; format: cell-based; conditions: Homo sapiens; TK-10, renal cancer; single dose 10^−5 M; read-out: growth inhibition percentage
Method: as §1, §2

T-47D = assay: NCI single dose screen, T-47D; format: cell-based; conditions: Homo sapiens, T47D, breast cancer, single dose 10^−5 M, read-out: growth inhibition percentage
Method: as §1, §2

MOLT-4 = assay: NCI single dose screen, MOLT-4; format: cell-based; conditions: Homo sapiens; MOLT-4, leukaemia; single dose 10^−5 M; read-out: growth inhibition percentage
Method: as §1, §2

SK-MEL-2 = assay: NCI single dose screen, SK-MEL-2; format: cell-based; conditions: Homo sapiens; SK-MEL-2, melanoma; single dose 10^−5 M; read-out: growth inhibition percentage
Method: as §1, §2

IGROV1 = assay: NCI single dose screen, IGROV1; format: cell-based; conditions: Homo sapiens, IGROV-1; IGROV1, ovarian cancer; single dose 10^−5 M; read-out: growth inhibition percentage
Method: as §1, §2

[1] = tested on: LPS-induced ROS production in RAW 264.7 cells; assay: ROS production in LPS-activated RAW 264.7 macrophage cells (DCFH-DA); format: cell-based; conditions: Mus musculus, RAW264.7; LPS-activated RAW 264.7 cells; mean ± SEM, three replicates
Method: TNF-α and IL-6 production were detected in RAW 264.7 macrophage cell culture supernatants following the induction of inflammation by LPS. Moreover, the probes of oxidative species 2,7-dichlorofluorescein diacetate (DCFH-DA) (Molecular Probes) and NO, 4-amino-5-methylamino-2,7-difluorofluorescein diacetate (DAF-FM diacetate) (Molecular Probes) were used to investigate the antioxidant and NO production inhibitory potential of the test compounds. Briefly, RAW 264.7 cells were cultured in black 96 well plates (200 000 cells/mL, 100 µl/well) for 24 h followed by the incubation with the individual test compounds or the reference drugs at different concentrations (12.5, 25, 50, and 100 µM) for 2 h at 37 °C. LPS was then added at a final concentration of 1 µg/mL for an additional 18 h. The cell culture supernatant was collected from cells treated with the different compounds at 25 µM to measure TNF-α and IL-6 levels (1:10 dilution) using DuoSet ELISA kits (R&D Systems, Minneapolis, MN) following the manufacturer’s instructions. Then, the plates were washed to perform ROS and NO detection assays as detailed in our previous studies[16]^,[27].

[2] = tested on: LPS-induced TNF-α production in RAW 264.7 cells; assay: TNF-α production in LPS-activated RAW 264.7 cells (ELISA); format: cell-based; conditions: for TNF-α concentration: LPS-activated RAW 264.7 cells treated with 25 µM of the compound
M14 = assay: NCI single dose screen, M14; format: cell-based; conditions: Homo sapiens; M14, melanoma; single dose 10^−5 M; read-out: growth inhibition percentage
Method: as §1, §2

UACC-257 = assay: NCI single dose screen, UACC-257; format: cell-based; conditions: Homo sapiens; UACC-257, melanoma; single dose 10^−5 M; read-out: growth inhibition percentage
Method: as §1, §2

DU-145 = assay: NCI single dose screen, DU-145; format: cell-based; conditions: Homo sapiens; DU-145, prostate cancer; single dose 10^−5 M; read-out: growth inhibition percentage
Method: as §1, §2

NCI-H23 = assay: NCI single dose screen, NCI-H23; format: cell-based; conditions: Homo sapiens; NCI-H23, non-small cell lung cancer; single dose 10^−5 M; read-out: growth inhibition percentage
Method: as §1, §2

OVCAR-5 = assay: NCI single dose screen, OVCAR-5; format: cell-based; conditions: Homo sapiens; OVCAR-5, ovarian cancer; single dose 10^−5 M; read-out: growth inhibition percentage
Method: as §1, §2

COLO 205 = assay: NCI single dose screen, COLO 205; format: cell-based; conditions: Homo sapiens; COLO 205, colon cancer; single dose 10^−5 M; read-out: growth inhibition percentage
Method: as §1, §2

human recombinant COX-2 = molecular target: T1, human recombinant COX-2 (Homo sapiens, UniProt P35354); assay: In vitro COX-2 inhibition assay kit (Cayman); format: biochemical; conditions: for COX-2 SI: Selectivity index = COX-1 IC50/COX-2 IC50; for IC50: human recombinant COX-2, mean ± SEM, n = 3 replicates
T1 sequence (P35354 18-604): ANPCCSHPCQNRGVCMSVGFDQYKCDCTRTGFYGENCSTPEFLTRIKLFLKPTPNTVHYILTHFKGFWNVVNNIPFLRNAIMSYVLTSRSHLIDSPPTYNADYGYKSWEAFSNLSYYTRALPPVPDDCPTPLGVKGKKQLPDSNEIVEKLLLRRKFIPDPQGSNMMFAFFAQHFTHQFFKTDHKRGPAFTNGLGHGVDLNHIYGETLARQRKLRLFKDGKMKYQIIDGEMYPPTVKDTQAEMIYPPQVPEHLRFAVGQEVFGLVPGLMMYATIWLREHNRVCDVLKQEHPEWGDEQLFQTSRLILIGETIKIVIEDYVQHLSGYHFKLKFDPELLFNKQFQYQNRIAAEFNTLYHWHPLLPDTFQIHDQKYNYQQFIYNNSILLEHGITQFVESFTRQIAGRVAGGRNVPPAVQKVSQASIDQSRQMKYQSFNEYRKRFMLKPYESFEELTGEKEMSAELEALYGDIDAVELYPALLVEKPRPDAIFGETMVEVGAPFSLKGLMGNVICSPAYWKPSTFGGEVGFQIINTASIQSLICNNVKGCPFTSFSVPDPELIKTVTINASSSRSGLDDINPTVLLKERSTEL
Method: The half-maximal inhibitory concentration (IC50, μM) was determined, and the COX-2 selectivity index (SI) was calculated as IC50 (COX-1)/IC50 (COX-2).

NCI/ADR-RES = assay: NCI single dose screen, NCI/ADR-RES; format: cell-based; conditions: Homo sapiens, ovarian cancer, single dose 10^−5 M, read-out: growth inhibition percentage
Method: as §1, §2

MALME-3M = assay: NCI single dose screen, MALME-3M; format: cell-based; conditions: Homo sapiens, melanoma, single dose 10^−5 M, read-out: growth inhibition percentage
Method: as §1, §2

[3] = 25 µM, LPS-activated RAW 264.7 cells

CN1c2ccccc2C(=O)N(NC(=O)Nc2ccc(F)cc2)C1c1ccccc1 (stereo not shown) [Compound 6m, 1-(4-Fluorophenyl)-3-(1-methyl-4-oxo-2-phenyl-1,4-dihydroquinazolin-3(2H)-yl)urea]
inhibition at 10 µM (SNB-75): < 10%
inhibition at 10 µM (A498): < 10%
inhibition at 10 µM (SF-268): < 10%
inhibition at 10 µM (HOP-92): < 10%
inhibition at 10 µM (TK-10): < 10%
inhibition at 10 µM (T-47D): 13.9%
inhibition at 10 µM (MOLT-4): 23.5%
inhibition at 10 µM (SK-MEL-2): < 10%
inhibition at 10 µM (IGROV1): < 10%
IC50 [1]: 57.2 ± 1 µM
TNF-α concentration [2]: 935.60 ± 3.85 pg/mL
inhibition at 10 µM (M14): 18.9%
inhibition at 10 µM (UACC-257): < 10%
inhibition at 10 µM (DU-145): < 10%
inhibition at 10 µM (NCI-H23): < 10%
inhibition at 10 µM (OVCAR-5): < 10%
inhibition at 10 µM (COLO 205): < 10%
COX-2 SI (human recombinant COX-2): 3.93
IC50 (human recombinant COX-2): 3.16 ± 1.22 µM
inhibition at 10 µM (NCI/ADR-RES): 16.8%
inhibition at 10 µM (MALME-3M): 10.8%

CN1c2ccccc2C(=O)N(NC(=O)Nc2ccc(F)cc2)C1c1ccc(F)cc1 (stereo not shown) [Compound 6n, 1-(4-Fluorophenyl)-3-(2–(4-fluorophenyl)-1-methyl-4-oxo-1,4-dihydroquinazolin-3(2H)-yl)urea]
inhibition at 10 µM (SNB-75): 28.1%
inhibition at 10 µM (A498): < 10%
inhibition at 10 µM (SF-268): 21.7%
inhibition at 10 µM (HOP-92): < 10%
inhibition at 10 µM (TK-10): < 10%
inhibition at 10 µM (T-47D): 11.7%
inhibition at 10 µM (MOLT-4): 43.1%
inhibition at 10 µM (SK-MEL-2): 12.5%
inhibition at 10 µM (IGROV1): < 10%
IC50 [1]: 39.4 ± 2.25 µM
TNF-α concentration [2]: 1981.00 ± 209.9 pg/mL
inhibition at 10 µM (M14): 23.2%
inhibition at 10 µM (UACC-257): < 10%
inhibition at 10 µM (DU-145): < 10%
inhibition at 10 µM (NCI-H23): < 10%
inhibition at 10 µM (OVCAR-5): < 10%
inhibition at 10 µM (COLO 205): < 10%
COX-2 SI (human recombinant COX-2): 16.12
IC50 (human recombinant COX-2): 0.65 ± 1.3 µM
inhibition at 10 µM (NCI/ADR-RES): 23.2%
inhibition at 10 µM (MALME-3M): 17.6%

CN1c2ccccc2C(=O)N(NC(=O)Nc2ccc(F)cc2)C1c1ccc([N+](=O)[O-])cc1 (stereo not shown) [Compound 6o, 1-(4-Fluorophenyl)-3–(1-methyl-2-(4-nitrophenyl)-4-oxo-1,4-dihydroquinazolin-3(2H)-yl)urea]
inhibition at 10 µM (SNB-75): < 10%
inhibition at 10 µM (A498): < 10%
inhibition at 10 µM (SF-268): < 10%
inhibition at 10 µM (HOP-92): < 10%
inhibition at 10 µM (TK-10): < 10%
inhibition at 10 µM (T-47D): < 10%
inhibition at 10 µM (MOLT-4): 20.4%
inhibition at 10 µM (SK-MEL-2): < 10%
inhibition at 10 µM (IGROV1): < 10%
IC50 [1]: 23.4 ± 1.13 µM
TNF-α level, times lower than celecoxib [2, 3]: ~10 times
TNF-α level, times lower than diclofenac [2, 3]: ~17 times
TNF-α concentration [2]: 39.37 pg/mL and 39.37 ± 1.21 pg/mL
inhibition at 10 µM (M14): 18%
inhibition at 10 µM (UACC-257): < 10%
inhibition at 10 µM (DU-145): < 10%
inhibition at 10 µM (NCI-H23): < 10%
inhibition at 10 µM (OVCAR-5): < 10%
inhibition at 10 µM (COLO 205): < 10%
IC50 (human recombinant COX-2): 10.1 ± 1.01 µM
inhibition at 10 µM (NCI/ADR-RES): < 10%
inhibition at 10 µM (MALME-3M): 14.1%

COc1ccc(C2N(NC(=O)Nc3ccc(F)cc3)C(=O)c3ccccc3N2C)cc1 (stereo not shown) [Compound 6p, 1-(4-Fluorophenyl)-3-(2–(4-methoxyphenyl)-1-methyl-4-oxo-1,4-dihydroquinazolin-3(2H)-yl)urea]
inhibition at 10 µM (SNB-75): < 10%
inhibition at 10 µM (A498): < 10%
inhibition at 10 µM (SF-268): < 10%
inhibition at 10 µM (HOP-92): < 10%
inhibition at 10 µM (TK-10): < 10%
inhibition at 10 µM (T-47D): < 10%
inhibition at 10 µM (MOLT-4): 11.2%
inhibition at 10 µM (SK-MEL-2): < 10%
inhibition at 10 µM (IGROV1): < 10%
IC50 [1]: 38.6 ± 1.33 µM
TNF-α concentration [2]: 1549.00 ± 20.25 pg/mL
inhibition at 10 µM (M14): 11.8%
inhibition at 10 µM (UACC-257): < 10%
inhibition at 10 µM (DU-145): < 10%
inhibition at 10 µM (NCI-H23): < 10%
inhibition at 10 µM (OVCAR-5): < 10%
inhibition at 10 µM (COLO 205): < 10%
COX-2 SI (human recombinant COX-2): 9.54
IC50 (human recombinant COX-2): 9.28 ± 1.04 µM
inhibition at 10 µM (NCI/ADR-RES): < 10%
inhibition at 10 µM (MALME-3M): < 10%
